What was measured:
[1] = Stability / storage of the nitro colorant in (oxidation) dyeing composition or reducing alkaline medium; assay type: physicochemical; details: oxidation dye composition with ammonia and sodium bisulphite (Examples 26, 27)

Row | SMILES | harmlessness (Harmlessness / toxicity) | stability of the nitro colorant in the liquid composition [1]
1 | CCN(CC)CCNc1cc([N+](=O)[O-])c(N)c(C)c1C [4-amino-5,6-dimethyl-3-nitro-N-(β-diethylaminoethyl)aniline] | particularly harmless | 
2 | Cc1c(NCC(O)CO)cc([N+](=O)[O-])c(N)c1C (stereo not drawn) [4-amino-5,6-dimethyl-3-nitro-N-β,γ-dihydroxypropylaniline] | particularly harmless | 
3 | Cc1c(N)cc([N+](=O)[O-])c(N)c1C [5,6-dimethyl-3-nitroparaphenylenediamine] | particularly harmless | stable in the liquid composition
4 | Cc1c(NCCN)cc([N+](=O)[O-])c(N)c1C [4-amino-5,6-dimethyl-3-nitro-N-β-aminoethylaniline] | particularly harmless | 
5 | CNc1c(C)cc(N)c([N+](=O)[O-])c1C [4-amino-2,6-dimethyl-3-nitro-N-methylaniline] | particularly harmless | 
6 | Cc1cc(N)c([N+](=O)[O-])c(C)c1N [2,6-dimethyl-3-nitroparaphenylenediamine] | particularly harmless | preserved
7 | Cc1c(NCCO)cc([N+](=O)[O-])c(N)c1C [4-amino-5,6-dimethyl-3-nitro-N-β-hydroxyethylaniline] | particularly harmless | 
